Data: patent US20130217659A1, “PROCESS FOR THE CRYSTALLISATION OF CEFADROXIL MONOHYDRATE” (DSM SINOCHEM PHARMACEUTICALS NETHERLANDS B.V., priority 2006, published 2013)
Each block holds one compound with its values, some of them ahead of it.

How the values were obtained:
Type in all cases: physicochemical
[1] = Colour stability test, stress conditions: storage at 40° C.; conditions: stored at 40° C.
Method: The CIE b value was determined using a X-Rite® 918 apparatus (X-Rite Incorporated, 4300 44th St. SE, Grand Rapids, Mich. 49512 USA). A sample of 2 g of cefadroxil crystals was placed at the appropriate place of the apparatus and the CIE b value was read. The average of two separate readings was calculated. Cefadroxil (CDX) monohydrate crystals obtained by the one-step crystallisation process of the Reference Experiment A and the two-step crystallisation process according to the present invention were stored at a temperature of 40° C. The CIE b values of the different cefadroxil monohydrate crystals were determined at different time intervals as indicated in Table 1. CDX (1)-(3) were obtained from 3 different crystallisation processes.

[2] = Determination of the CIE b value (colour of crystals) after crystallisation; conditions: crystals after isolation and drying, t=0; monohydrate
Method: CIE is an abbreviation for the French title of the International Commission on Illumination: “Commission International de l'Eclairage”. The CIE b is a measure to determine the colour of crystals, which is a known technology for the skilled man in the art. An overview of the fundamentals of the CIE colorimetry system is given in Ohno, Y., Paper for IS&T NIO16 Conference, Vancouver, Canada, Oct. 16-20, 2000, p. 1-5. The CIE b value was determined using a X-Rite® 918 apparatus (X-Rite Incorporated, 4300 44th St. SE, Grand Rapids, Mich. 49512 USA). A sample of 2 g of cefadroxil crystals was placed at the appropriate place of the apparatus and the CIE b value was read. The average of two separate readings was calculated.

[3] = Colour stability test, storage at 25° C.; conditions: stored at 25° C.
Method: The CIE b value was determined using a X-Rite® 918 apparatus (X-Rite Incorporated, 4300 44th St. SE, Grand Rapids, Mich. 49512 USA). A sample of 2 g of cefadroxil crystals was placed at the appropriate place of the apparatus and the CIE b value was read. The average of two separate readings was calculated. The cefadroxil monohydrate crystals obtained with the one-step crystallisation process of Reference experiment A and a two-step crystallisation process according to the present invention were stored at 25° C.

Structure (SMILES): CC1=C(C(=O)O)N2C(=O)[C@@H](NC(=O)[C@H](N)c3ccc(O)cc3)[C@H]2SC1 [CDX (1), cefadroxil monohydrate]
CIE b ([1]; 0 weeks, monohydrate): 4.8
CIE b ([1]; 4 weeks, monohydrate): 6.6
CIE b ([1]; 8 weeks, monohydrate): 9.1
CIE b ([1]; 12 weeks, monohydrate): 10.4
CIE b ([1]; 20 weeks, monohydrate): 12.4
CIE b ([1]; 24 weeks, monohydrate): 12.9

Structure (SMILES): CC1=C(C(=O)O)N2C(=O)[C@@H](NC(=O)[C@H](N)c3ccc(O)cc3)[C@H]2SC1 [CDX (2), cefadroxil monohydrate]
CIE b ([1]; 0 weeks, monohydrate): 4.4
CIE b ([1]; 2 weeks, monohydrate): 4.8
CIE b ([1]; 4 weeks, monohydrate): 5.1

Structure (SMILES): CC1=C(C(=O)O)N2C(=O)[C@@H](NC(=O)[C@H](N)c3ccc(O)cc3)[C@H]2SC1 [CDX (3), cefadroxil monohydrate]
CIE b ([1]; 0 weeks, monohydrate): 3.1
CIE b ([1]; 2 weeks, monohydrate): 3.0
CIE b ([1]; 4 weeks, monohydrate): 4.6

Second part, the compound after the results:

CIE b value [2]: 4.68
Structure (SMILES): CC1=C(C(=O)O)N2C(=O)[C@@H](NC(=O)[C@H](N)c3ccc(O)cc3)[C@H]2SC1 [Example 1, cefadroxil monohydrate]

CIE b value [2]: 4.52
Structure (SMILES): CC1=C(C(=O)O)N2C(=O)[C@@H](NC(=O)[C@H](N)c3ccc(O)cc3)[C@H]2SC1 [Example 2, cefadroxil monohydrate]

CIE b value [2]: 6.2
CIE b ([1]; 0 weeks, listed as CDX monohydrate crystals obtained by the one-step crystallisation process, monohydrate): 6.2
CIE b ([1]; 2 weeks, listed as CDX monohydrate crystals obtained by the one-step crystallisation process, monohydrate): 10.0
CIE b ([1]; 4 weeks, listed as CDX monohydrate crystals obtained by the one-step crystallisation process, monohydrate): 13.2
CIE b ([1]; 6 weeks): 15.6
CIE b ([1]; 8 weeks, listed as CDX monohydrate crystals obtained by the one-step crystallisation process, monohydrate): 17.0
CIE b ([1]; 12 weeks): 14.2
CIE b ([1]; 14 weeks): 18.2
CIE b ([1]; 18 weeks): 18.6
CIE b ([1]; 20 weeks, listed as CDX monohydrate crystals obtained by the one-step crystallisation process, monohydrate): 19.1
CIE b ([1]; 24 weeks, listed as CDX monohydrate crystals obtained by the one-step crystallisation process, monohydrate): 20.0
CIE b ([3]; 0 months, listed as one-step crystallization process, monohydrate): 6.2
CIE b ([3]; 3 months, listed as one-step crystallization process, monohydrate): 14.0
CIE b ([3]; 6 months, listed as one-step crystallization process, monohydrate): 14.7
CIE b ([3]; 9 months, listed as one-step crystallization process, monohydrate): 15.1
CIE b ([3]; 12 months): 15.5
CIE b ([3]; 18 months): 17.7
Structure (SMILES): CC1=C(C(=O)O)N2C(=O)[C@@H](NC(=O)[C@H](N)c3ccc(O)cc3)[C@H]2SC1 [Reference Experiment A, cefadroxil monohydrate]

CIE b ([3]; 0 months, monohydrate): 4.8
CIE b ([3]; 3 months, monohydrate): 5.8
CIE b ([3]; 6 months, monohydrate): 6.0
CIE b ([3]; 9 months, monohydrate): 6.3
Structure (SMILES): CC1=C(C(=O)O)N2C(=O)[C@@H](NC(=O)[C@H](N)c3ccc(O)cc3)[C@H]2SC1 [two-step crystallization process, cefadroxil monohydrate]
